Data on two molecules can be found in US20240352000A1, “NOVEL PYRIMIDINE-2,4-DIAMINE DERIVATIVES, PREPARATION METHOD THEREFOR, AND PHARMACEUTICAL COMPOSITION CONTAINING SAME AS ACTIVE INGREDIENT FOR PREVENTION OR TREATMENT OF CANCER” (KOREA RESEARCH INSTITUTE OF CHEMICAL TECHNOLOGY, priority 2021, published 2024).

Molecules are shown by their SMILES. A value given as a limit tells only on which side of the number the result lay.

The subject of assay [1] is Ba/F3 EGFR L858R/T790M. Nature of the assay: CellTiter-Glo cell viability, Ba/F3 EGFR L858R/T790M. The assay is classed as cell-based. The conditions noted are these: 72 hours. As for the experimental part: An experiment to measure the activity of the compounds of the present invention against the mutant Ba/F3 EGFR cell line was performed as follows using the CellTiter-Glo system sold by Promega. The CellTiter-Glo assay is a method to confirm the cell viability by measuring ATP present in cells in cell culture. The Ba/F3 EGFR L858R, Ba/F3 EGFR L858R/T790M, Ba/F3 EGFR L858R/T790M/C797S mutant cell line was used. The Ba/F3 EGFR L858R, Ba/F3 EGFR L858R/T790M, and Ba/F3 EGFR L858R/T790M/C797S mutant cell lines was cultured in RPMI containing 10% FBS and 1% penicillin-streptomycin with 1 μg of puromycin in an incubator at 37° C. and 5% CO2.
(§1) Analysis of the inhibitory ability effect of the compounds against EGFR was conducted according to the following analysis reaction recipe.
(§2) 2500 cells/90 μl were passaged and cultured in a 96-well cell culture plate, and after 24 hours, treated with the compound represented by Formula 1 at a concentration of 0, 0.01, 0.03, 0.1, 0.3, 1, 3, and 10 (μM). After reaction for 72 hours, the plate treated with the compound was left at room temperature for 30 minutes, then further treated with 100 μl of reagent, and shaken at room temperature for 10 minutes. Finally, the ratio of fluorescence values at 570 nm was obtained using the equipment to quantitatively measure and confirmed the inhibitory ability of the compounds. The measurement values measured at eight compound concentrations were analyzed using the Prism program (version 5.01, Graphpad Software, Inc.), and the IC50 value, which is an indicator of the inhibitory ability of the compound, was calculated.
Background: Cellular ATP, detected with luciferase, serves as a proxy for viable cell number.

The target in assay [2] is HER2 A775_G776insYVMA (Homo sapiens (Human), UniProt P04626, INS775YVMA). Nature of the assay: HTRF enzyme assay, HER2 mutant enzyme. The assay is classed as biochemical. To be noted: recombinant enzyme, 37° C. 2 hours. Here is the method: An experiment to measure the activity of the compounds of the present invention against HER mutant enzymes was performed as follows using the HTRF system sold by Cisbio. For the HER2 mutant enzyme, HER2 A775_G776insYVMA mutant enzyme, a recombinant protein provided by Carna Biosciences was purchased and used.
Chain of HER2 A775_G776insYVMA (P04626 other isoform, or with tags, fused parts or gaps del 1-675/ins YVMA behind 775 limits assumed): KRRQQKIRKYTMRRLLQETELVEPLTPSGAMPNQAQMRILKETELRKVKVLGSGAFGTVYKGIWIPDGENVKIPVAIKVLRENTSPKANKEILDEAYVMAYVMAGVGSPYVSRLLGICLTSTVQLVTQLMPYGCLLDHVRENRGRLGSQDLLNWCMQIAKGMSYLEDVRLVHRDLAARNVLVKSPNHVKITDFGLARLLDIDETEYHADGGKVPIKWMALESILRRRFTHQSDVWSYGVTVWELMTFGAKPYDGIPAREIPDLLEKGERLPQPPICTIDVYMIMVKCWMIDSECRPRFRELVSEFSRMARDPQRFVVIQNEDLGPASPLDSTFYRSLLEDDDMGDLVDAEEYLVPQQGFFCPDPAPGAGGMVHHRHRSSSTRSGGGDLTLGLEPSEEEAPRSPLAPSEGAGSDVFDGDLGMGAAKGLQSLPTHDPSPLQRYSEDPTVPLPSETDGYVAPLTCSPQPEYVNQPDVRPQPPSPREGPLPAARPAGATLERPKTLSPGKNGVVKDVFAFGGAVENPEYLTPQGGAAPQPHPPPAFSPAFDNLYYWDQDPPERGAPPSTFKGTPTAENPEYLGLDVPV
(§3) The composition of the assay buffer used for measuring the activity was 50 mM Tris-HCl pH 7.5, 100 mM NaCl, 7.5 mM MgCl2, 3 mM KCl, 0.01% Tween 20, 0.1% BSA, and 1 mM DTT. Here, an enzyme reaction was performed using with ATP at a concentration of […] and a peptide substrate labeled biotin at a concentration of […]. Analysis of the inhibitory effect of the compounds against the HER2 A775_G776insYVMA mutant activity was conducted according to the following analysis reaction recipe. • Component 1: 4 μL of a HER2 A775_G776insYVMA mutant enzyme • Component 2: 2 μL of a compound solution • Component 3: 4 μL of ATP and a peptide labeled with biotin
(§4) The enzyme reaction was started by first mixing Component 1 and Component 2 and then adding Component 3. After reaction at 37° C. for 2 hours, […] of measurement solution consisting of streptavidin-XL665 and europium-labeled anti-phosphotyrosine antibody provided by Cisbio was added to the enzyme reaction solution and reacted at room temperature for 1 hour. Finally, the ratio of fluorescence values at 615 nm and 665 nm was obtained using the Envision equipment from Perkin-Elmer to quantitatively measure the enzyme activity and confirmed the inhibitory ability of the compounds. The measurement values measured at seven compound concentrations were analyzed using the Prism program (version 5.01, Graphpad Software, Inc.), and the IC50 value, which is an indicator of the inhibitory ability of the compound, was calculated.
(In TR-FRET formats the signal depends on donor and acceptor labels being close together.)

Assay [3] has as its target EGFR del19/T790M/C797S (Homo sapiens (Human), UniProt P00533, C797S/DEL746-750/T790M). Nature of the assay: HTRF enzyme assay, EGFR del19/T790M/C797S mutant enzyme. The assay is classed as biochemical. To be noted: enzyme from SignalChem, 37° C. 2 hours. As for the experimental part: An experiment to measure the activity of the compounds of the present invention against EGFR mutant enzymes was performed as follows using the HTRF system sold by Cisbio. For the EGFR del19/T790M mutant enzyme, a recombinant protein provided by Carna Biosciences was purchased and used, and for the EGFR del19/T790M/C797S mutant enzyme, a protein provided by SignalChem was purchased and used as an enzyme source.
as §3, with “performed using ATP at” for “performed using with ATP at”, “substrate labeled with biotin at” for “substrate labeled biotin at”, “against the EGFR activity was” for “against the HER2 A775_G776insYVMA mutant activity was”, “μL of an EGFR mutant enzyme” for “μL of a HER2 A775_G776insYVMA mutant enzyme”
as §4

Assay [4] deals with EGFR A763_Y764insFHEA (Homo sapiens (Human), UniProt P00533, INS763FHEA). Nature of the assay: HTRF enzyme assay, EGFR Ex20 insertion mutant enzyme. The conditions noted are these: recombinant enzyme, 37° C. 2 hours. The assay is classed as biochemical. Here is the method:
An experiment to measure the activity of the compounds of the present invention against EGFR mutant enzymes was performed as follows using the HTRF system sold by Cisbio. For the EGFR mutant enzyme, EGFR A763_Y764insFHEA enzyme, a recombinant protein provided by SignalChem was purchased and used.
as §3, with “performed using ATP at” for “performed using with ATP at”, “substrate labeled with biotin at” for “substrate labeled biotin at”, “against the EGFR activity was” for “against the HER2 A775_G776insYVMA mutant activity was”, “μL of an EGFR mutant enzyme” for “μL of a HER2 A775_G776insYVMA mutant enzyme”
as §4

The test system of assay [5] is Ba/F3 EGFR del19/T790M. Nature of the assay: CellTiter-Glo cell viability, Ba/F3 EGFR del19/T790M. To be noted: 72 hours. Type of assay: cell-based. As for the experimental part: An experiment to measure the activity of the compounds of the present invention against the mutant Ba/F3 EGFR cell line was performed as follows using the CellTiter-Glo system sold by Promega. The CellTiter-Glo assay is a method to confirm the cell viability by measuring ATP present in cells in cell culture. For the Ba/F3 EGFR del19, Ba/F3 EGFR del19/T790M, Ba/F3 del19/T790M/C797S mutant cell line, a cell line provided by Crown Bioscience was purchased and used. The Ba/F3 EGFR del19, Ba/F3 EGFR del19/T790M, Ba/F3 del19/T790M/C797S mutant cell line was cultured in RPMI containing 10% FBS and 1% penicillin-streptomycin with 1 μg of puromycin in an incubator at 37° C. and 5% CO2.
as §1
as §2, with “cells/90 μL” for “cells/90 μl”

Chain of EGFR A763_Y764insFHEA (P00533 other isoform, or with tags, fused parts or gaps del 1-694/ins FHEA behind 763 limits assumed): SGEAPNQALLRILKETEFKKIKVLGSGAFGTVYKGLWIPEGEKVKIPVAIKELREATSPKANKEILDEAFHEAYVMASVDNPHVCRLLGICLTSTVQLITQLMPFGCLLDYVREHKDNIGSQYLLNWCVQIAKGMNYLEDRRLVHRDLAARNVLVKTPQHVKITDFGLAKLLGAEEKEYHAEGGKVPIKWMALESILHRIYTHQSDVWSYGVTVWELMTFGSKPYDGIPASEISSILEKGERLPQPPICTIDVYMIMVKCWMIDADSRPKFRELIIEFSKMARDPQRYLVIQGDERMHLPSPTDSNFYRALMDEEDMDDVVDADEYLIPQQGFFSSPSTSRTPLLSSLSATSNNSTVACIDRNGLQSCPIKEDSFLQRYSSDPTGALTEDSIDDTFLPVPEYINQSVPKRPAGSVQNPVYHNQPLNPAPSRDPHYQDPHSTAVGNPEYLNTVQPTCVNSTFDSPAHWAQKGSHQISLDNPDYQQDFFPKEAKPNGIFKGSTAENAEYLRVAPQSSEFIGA
Chain of EGFR del19/T790M/C797S (P00533 other isoform, or with tags, fused parts or gaps T790M/C797S/del 1-694/del 746-750 limits assumed): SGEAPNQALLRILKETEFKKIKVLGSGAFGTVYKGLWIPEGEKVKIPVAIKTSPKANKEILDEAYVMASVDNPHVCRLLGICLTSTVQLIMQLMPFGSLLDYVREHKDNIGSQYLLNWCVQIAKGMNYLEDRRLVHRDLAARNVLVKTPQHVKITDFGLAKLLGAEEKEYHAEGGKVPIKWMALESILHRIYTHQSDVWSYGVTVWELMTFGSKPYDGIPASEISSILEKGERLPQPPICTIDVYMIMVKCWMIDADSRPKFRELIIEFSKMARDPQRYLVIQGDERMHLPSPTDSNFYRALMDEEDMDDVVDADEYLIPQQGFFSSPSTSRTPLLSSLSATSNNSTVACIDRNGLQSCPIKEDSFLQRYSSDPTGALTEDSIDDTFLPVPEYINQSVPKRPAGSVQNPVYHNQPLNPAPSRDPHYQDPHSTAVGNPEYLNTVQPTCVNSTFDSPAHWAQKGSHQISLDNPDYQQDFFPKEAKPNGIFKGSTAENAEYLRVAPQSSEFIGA

With `COc1cc(N2CCC(N3CCN(C)CC3)CC2)ccc1Nc1ncc(Cl)c(Nc2cccc3c2N(S(C)(=O)=O)CC3)n1` [Example 2, 5-chloro-N2-(2-methoxy-4-(4-(4-methylpiperazin-1-yl)piperidin-1-yl)phenyl)-N4-(1-(methylsulfonyl)indolin-7-yl)pyrimidine-2,4-diamine], the IC50 (usually the concentration that inhibits the measured activity by half) in assay [1] was below 30 nM; in assay [2], 1 nM; in assay [3], below 1 nM; in assay [4] it was 1.7 nM; in assay [5], below 100 nM.
On the same counts, the results for `COc1cc(N2CCC(N3CCN(C)CC3)CC2)ccc1Nc1ncc(Cl)c(Nc2cccc3c2N(S(C)(=O)=O)CCC3)n1` [Example 5, 5-chloro-N2-(2-methoxy-4-(4-(4-methylpiperazin-1-yl)piperidin-1-yl)phenyl)-N4-(1-(methylsulfonyl)-1,2,3,4-tetrahydroquinolin-8-yl)pyrimidine-2,4-diamine] are below 30 nM, 3 nM, below 1 nM, 11 nM and below 30 nM.
